Values of other authors, collected in US7273880B2, “Selective NPY (Y5) antagonists” (H. Lunbeck A/S, priority 1999, dated 2007).

Tested on: satiated rats
Details: direct injection into the hypothalamus, 4-hour period; cited from earlier work

Q: For “NPY: peptide neurotransmitter neuropeptide Y, a 36 amino acid member of the pancreatic polypeptide family”, which “increase of food intake” value is on record?
A: The value was “up to 10 fold”.
